# Assay results published in patent publication EP2857388A1, “Azoles containing sulfone” (Grünenthal GmbH, priority 2013, dated 2015).
# Target: T1, human B1R (Homo sapiens, UniProt P46663)
# T1 construct: expressed in transfected cells; host or cells: CHO K1 cells (Chinese Hamster Ovary), stably transfected
# T1 sequence (P46663 1-353): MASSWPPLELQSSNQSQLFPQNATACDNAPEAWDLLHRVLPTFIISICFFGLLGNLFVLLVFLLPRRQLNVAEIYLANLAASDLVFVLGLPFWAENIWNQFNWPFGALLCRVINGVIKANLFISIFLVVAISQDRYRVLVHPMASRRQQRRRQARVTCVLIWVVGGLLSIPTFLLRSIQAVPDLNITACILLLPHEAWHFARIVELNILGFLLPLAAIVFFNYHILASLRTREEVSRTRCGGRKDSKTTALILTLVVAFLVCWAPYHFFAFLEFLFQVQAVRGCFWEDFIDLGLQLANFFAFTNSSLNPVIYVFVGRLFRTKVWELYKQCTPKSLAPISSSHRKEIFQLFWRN
# Test: Functional assay at bradykinin receptor 1 (B1R): Ca2+ fluorescence (Fluo-4) in FLIPR/Novostar, antagonist mode
# Format: cell-based
# Conditions: test substance 10 µM; CHO K1 cells stably transfected with human B1R gene (hB1R-Zellen); agonist Lys-Des-Arg9-Bradykinin at EC80; % inhibition relative to maximal achievable inhibition; read-out: % Inhibierung (human B1R) bei 10 µM
# Protocol: Die agonistische bzw. antagonistische Wirkung von Substanzen kann am Bradykinin Rezeptor 1 (B1R) der Spezies Mensch und Ratte mit ektopisch exprimierenden Zelllinien (CHO K1 Zellen) und mit Hilfe eines Ca^2+-sensitiven Farbstoffs (Fluo-4) im Fluorescent Imaging Plate Reader (FLIPR) quantifiziert werden. Die Angabe in % Aktivierung wird bezogen auf das Ca^2+-Signal nach Zugabe von Lys-Des-Arg^9-Bradykinin ([…]), bzw. Des-Arg^9-Bradykinin (100 nM). Antagonisten führen zu einer Unterdrückung des Ca^2+-Einstroms nach der Zugabe des Agonisten. Angegeben werden % Inhibition im Vergleich zu der maximal erreichbaren Inhibition.
# Die agonistische bzw. antagonistische Wirkung von Substanzen kann am Bradykinin Rezeptor 1 (B1R) der Spezies Mensch und Ratte mit folgendem Assay bestimmt werden. Gemäß diesem Assay wird der intrazelluläre Ca^2+-Anstieg nach Gabe eines B1 R Agonisten mit Hilfe eines Ca^2+-sensitiven Farbstoffs (Typ Fluo-4, Molecular Probes Europe BV, Leiden NL) im Fluorescent Imaging Plate Reader (FLIPR, Molecular Devices, Sunnyvale, USA) und/oder im Novostar (BMG Labtech GmbH, Offenburg, DE) quantifiziert.
# Es werden Chinese Hamster Ovary Zellen (CHO K1 Zellen) verwendet, die stabil mit dem humanen B1 R-Gen (hB1R-Zellen) bzw. dem B1 R-Gen der Ratte (rB1R-Zellen) transfiziert sind. Für funktionelle Untersuchungen werden diese Zellen auf schwarze 96-Loch-Platten mit klarem Boden (BD Biosciences, Heidelberg, DE oder Greiner, Frickenhausen, DE) in einer Dichte von 20.000 - 35.000 Zellen/Loch ausplattiert. Über Nacht werden die Zellen bei 37°C und 5 % CO2 in Kulturmedium (hB1 R-Zellen: Nutrient Mixture Ham's F12, Gibco Invitrogen GmbH, Karlsruhe, Deutschland oder DMEM, Sigma-Aldrich, Taufkirchen, Deutschland; rB1R-Zellen: D-MEM/F12, Gibco Invitrogen GmbH, Karlsruhe, DE) mit 10 Vol-% FBS (Fetal bovine serum, Gibco Invitrogen GmbH, Karlsruhe, DE oder PAN Biotech GmbH, Aidenbach, DE) belassen. Am folgenden Tag werden die Zellen mit 2,13 µM Fluo-4 (Molecular Probes Europe BV, Leiden, NL) in HBSS-Puffer (Hank's buffered saline solution, Gibco Invitrogen GmbH, Karlsruhe, DE) mit 2,5 mM Probenecid (Sigma-Aldrich, Taufkirchen, DE) und 10 mM HEPES (Sigma-Aldrich, Taufkirchen, DE) für 60 min bei 37°C beladen. Anschließend werden die Platten 2 x mit HBSS-Puffer gewaschen und mit HBSS-Puffer versetzt, der zusätzlich 0,1 % BSA (bovines Serumalbumin; Sigma-Aldrich, Taufkirchen, Deutschland), 5,6 mM Glucose und 0,05 % Gelatine (Merck KGaA, Darmstadt, DE) enthält. Nach einer weiteren Inkubation von 20 Minuten bei RT werden die Platten zur Ca^2+-Messung im FLIPR oder Novostar eingesetzt. Alternativ wird mit Puffer A (15 mM HEPES, 80 mM NaCl, 5 mM KCI, 1,2 mM CaCl2, 0,7 mM MgSO4, 2g/L Glucose, 2,5 mM Probenecid) gewaschen und mit Puffer A versetzt mit 2,5 µM Fluo-4 und 0,025 % Pluronic F127 (Sigma-Aldrich, Taufkirchen, DE) beladen. Danach werden die Zellen 2 x mit Puffer A gewaschen und für 30 Minuten mit Puffer A, der zusätzlich 0,05 % BSA und 0,05 % Gelatine enthält bei RT inkubiert und danach zur Ca^2+-Messung im FLIPR oder Novostar eingesetzt.
# Die Ca^2+-abhängige Fluoreszenz wird dabei vor und nach Zugabe von Substanzen gemessen (λex = 488 nm, λem = 540 nm). Die Quantifizierung erfolgt durch die Messung der höchsten Fluoreszenzintensität (FC, Fluorescence Counts) über die Zeit.
# Das FLIPR-Protokoll besteht aus 2 Substanzzugaben, die im FLIPR pipettiert werden. Bei Messungen im Novostar wird nur die zweite Substanzzugabe im Gerät pipettiert. Beide Geräte messen die Fluoreszenzintensität über die Zeit. Zunächst werden Testsubstanzen (10 µM) auf die Zellen pipettiert und der intrazelluläre Ca^2+-Anstieg mit der Kontrolle (hB1 R: Lys-Des-Arg^9-Bradykinin >= 50 nM; rB1 R: Des-Arg^9-Bradykinin >= 1 µM) verglichen. Daraus ergibt sich die Angabe in % Aktivierung bezogen auf das Ca^2+-Signal nach Zugabe von Lys-Des-Arg^9-Bradykinin (>= 50 nM), bzw. Des-Arg^9-Bradykinin (>=1 µM). Nach 6-20 Minuten Inkubation werden Lys-Des-Arg^9-Bradykinin (hB1 R) bzw. […]
row,SMILES,inhibition at 10 µM
1,"Cc1cccc(Cl)c1S(=O)(=O)Cc1noc(C(=O)NC2CCC(N(C)C)CC2)n1 (stereo not shown) [CC-11, 3-[[(2-Chlor-6-methyl-phenyl)sulfonyl]-methyl]-N-(4-dimethylamino-cyclohexyl)-[1,2,4]oxadiazol-5-carbonsäure amid]",95%
2,"COc1cc(C)c(S(=O)(=O)Cc2noc(C(=O)N3CCN(c4ccncc4)CC3)n2)c(C)c1 [CC-136, [3-[[(4-Methoxy-2,6-dimethyl-phenyl)sulfonyl]-methyl]-[1,2,4]oxadiazol-5-yl]-(4-pyridin-4-yl-piperazin-1-yl)-methanon]",100%
3,"COc1cc(C)c(S(=O)(=O)Cc2c(C)nn(CC(=O)NC3CCN(C)CC3(C)C)c2C)c(C)c1 (stereo not shown) [CC-184, 2-[4-[[(4-Methoxy-2,6-dimethyl-phenyl)sulfonyl]-methyl]-3,5-dimethyl-1H-pyrazol-1-yl]-N-(1,3,3-trimethyl-piperidin-4-yl)-acetamid]",100%
4,"COc1cc(C)c(S(=O)(=O)Cc2noc(C(=O)NC3CCC(N4CCCC4)CC3(C)C)n2)c(C)c1 (stereo not shown) [CC-21, N-(2,2-Dimethyl-4-pyrrolidin-1-yl-cyclohexyl)-3-[[(4-methoxy-2,6-dimethyl-phenyl)sulfonyl]-methyl]-[1,2,4]oxadiazol-5-carbonsäure amid]",100%
5,"CC(=O)N1CCC(NC(=O)Cc2nc(CS(=O)(=O)c3cc(C)c(Cl)cc3C)no2)C(C)(C)C1 (stereo not shown) [CC-46, N-(1-Acetyl-3,3-dimethyl-piperidin-4-yl)-2-[3-[[(4-chlor-2,5-dimethyl-phenyl)sulfonyl]-methyl]-[1,2,4]oxadiazol-5-yl]-acetamid]",64%
6,"Cc1cccc(Cl)c1S(=O)(=O)Cc1noc(C(=O)N2CCC3(CCN(C)C3)C2)n1 (stereo not shown) [CC-143, [3-[[(2-Chlor-6-methyl-phenyl)sulfonyl]-methyl]-[1,2,4]oxadiazol-5-yl]-(2-methyl-2,8-diazaspiro-[4.4]nonan-8-yl)-methanon]",82%
7,"COc1cc(C)c(S(=O)(=O)Cc2c(C)nn(CC(=O)NC3CCC(N4CCN(C)CC4)CC3(C)C)c2C)c(C)c1 (stereo not shown) [CC-166, N-[2,2-D imethyl-4-(4-methyl-piperazin-1-yl)-cyclohexyl]-2-[4-[[(4-methoxy-2,6-dimethyl-phenyl)sulfonyl]-methyl]-3,5-dimethyl-1 H-pyrazol-1-yl]-acetamid]",100%
8,"COc1cc(C)c(S(=O)(=O)Cc2cc(C)n(CC(=O)NC3CCC(N(C)C)CC3)n2)c(C)c1 (stereo not shown) [CC-154, N-(4-Dimethylamino-cyclohexyl)-2-[3-[[(4-methoxy-2,6-dimethyl-phenyl)sulfonyl]-methyl]-5-methyl-1 H-pyrazol-1-yl]-acetamid]",80%
9,"COc1cc(C)c(S(=O)(=O)Cc2noc(C(=O)N3CCC4(CC3)CCN(c3ccncc3)C4)n2)c(C)c1 [CC-139, [3-[[(4-Methoxy-2,6-dimethyl-phenyl)sulfonyl]-methyl]-[1,2,4]oxadiazol-5-yl]-(3-pyridin-4-yl-3,8-diazaspiro[4.5]decan-8-yl)-methanon]",100%
10,"Cc1cccc(Cl)c1S(=O)(=O)Cc1noc(CC(=O)NC2CCC(N3CCCC3)CC2(C)C)n1 (stereo not shown) [CC-91, 2-[3-[[(2-Chlor-6-methyl-phenyl)sulfonyl]-methyl]-[1,2,4]oxadiazol-5-yl]-N-(2,2-dimethyl-4-pyrrolidin-1-yl-cyclohexyl)-acetamid]",97%
11,"COc1cc(C)c(S(=O)(=O)Cc2nnc(CC(=O)N(C3CCC(N(C)C)CC3)C3CC3)o2)c(C)c1 (stereo not shown) [CC-124, N-Cyclopropyl-N-(4-dimethylamino-cyclohexyl)-2-[5-[[(4-methoxy-2,6-dimethyl-phenyl)sulfonyl]-methyl]-[1,3,4]oxadiazol-2-yl]-acetamid]",100%
12,"COc1cc(C)c(S(=O)(=O)Cc2noc(CC(=O)N3CCN(Cc4ccnc(N5CCCC5)c4)CC3)n2)c(C)c1 [SC-52, 2-[3-[[(4-Methoxy-2,6-dimethyl-phenyl)sulfonyl]-methyl]-[1,2,4]oxadiazol-5-yl]-1-[4-[(2-pyrrolidin-1-yl-pyridin-4-yl)-methyl]-piperazin-1-yl]-ethanon]",100%
13,"COc1cc(C)c(S(=O)(=O)Cc2cn(CC(=O)N(C3CCC(N(C)C)CC3)C3CC3)nn2)c(C)c1 (stereo not shown) [CC-186, N-Cyclopropyl-N-(4-dimethylamino-cyclohexyl)-2-[4-[[(4-methoxy-2,6-dimethyl-phenyl)sulfonyl]-methyl]-1H-[1,2,3]triazol-1-yl]-acetamid]",100%

# Results, then the molecule that gave them:
row,inhibition at 10 µM,SMILES
1,100%,"COc1cc(C)c(S(=O)(=O)Cc2noc(CC(=O)N(C)C3CCN(c4ccncc4)C(=O)C3)n2)c(C)c1 (stereo not shown) [SC-85, 2-[3-[[(4-Methoxy-2,6-dimethyl-phenyl)sulfonyl]-methyl]-[1,2,4]oxadiazol-5-yl]-N-methyl-N-(2-oxo-1-pyridin-4-yl-piperidin-4-yl)-acetamid]"
2,100%,"COc1cc(C)c(S(=O)(=O)Cc2noc(CC(=O)N(C3CC3)C3CCN(c4ccncc4)CC3)n2)c(C)c1 [SC-22, N-Cyclopropyl-2-[3-[[(4-methoxy-2,6-dimethyl-phenyl)sulfonyl]-methyl]-[1,2,4]oxadiazol-5-yl]-N-(1-pyridin-4-yl-piperidin-4-yl)-acetamid]"
3,97%,"COc1cc(C)c(S(=O)(=O)Cc2noc(C(=O)NC3CCC(c4ccncc4)CC3(C)C)n2)c(C)c1 (stereo not shown) [SC-31, N-(2,2-Dimethyl-4-pyridin-4-yl-cyclohexyl)-3-[[(4-methoxy-2,6-dimethyl-phenyl)sulfonyl]-methyl]-[1,2,4]oxadiazol-5-carbonsäure amid]"
4,98%,"COc1cc(C)c(S(=O)(=O)Cc2noc(C(=O)N(C)C3CCN(c4ccncc4F)CC3)n2)c(C)c1 [SC-82, N-[1-(3-Fluor-pyridin-4-yl)-piperidin-4-yl]-3-[[(4-methoxy-2,6-dimethyl-phenyl)sulfonyl]-methyl]-N-methyl-[1,2,4]oxadiazol-5-carbonsäure amid]"
5,99%,"COc1cc(C)c(S(=O)(=O)Cc2noc(C(=O)NC3CCN(c4ccncc4)CC3)n2)c(C)c1 [SC-01, 3-[[(4-Methoxy-2,6-dimethyl-phenyl)sulfonyl]-methyl]-N-(1-pyridin-4-yl-piperidin-4-yl)-[1,2,4]oxadiazol-5-carbonsäure amid]"
6,100%,"COc1cc(C)c(S(=O)(=O)Cc2noc(CC(=O)N(C)C3CCN(c4ncnc5ccccc45)CC3)n2)c(C)c1 [SC-63, 2-[3-[[(4-Methoxy-2,6-dimethyl-phenyl)sulfonyl]-methyl]-[1,2,4]oxadiazol-5-yl]-N-methyl-N-(1-chinazolin-4-yl-piperidin-4-yl)-acetamid]"
